Results from patent publication US10870638B2, “Pyridazinone compound or its salt, and herbicide containing it” (ISHIHARA SANGYO KAISHA, LTD., priority 2016, dated 2020).

Assays:
Type in all cases: in vivo
Conditions in all cases: active ingredient amount 31 g/ha, 14th day after application
[1] = test system: redroot pigweed (Amaranthus retroflexus L.); experiment: Test Example 2: soil application on the day after sowing, growth inhibition rate on 14th day
Summary of the method: (§1)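 Herbicidal effect is assessed on pot-grown plants after a soil spray applied the day after sowing at prescribed active ingredient rates. Scoring occurs visually at day 14 as growth inhibition (%).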

[2] = test system: crabgrass (Digitaris sanquinalis L.); experiment: as above
Summary of the method: as §1

[3] = test system: barnyardgrass (Echinochloa crus-qalli L.); experiment: as above
Summary of the method: as §1

[4] = test system: wheat (Triticum aestivum L.); experiment: as above
Summary of the method: as §1

[5] = test system: prickly sida (Sida spinosa L.); experiment: as above
Summary of the method: as §1

[6] = test system: green foxtail (Setaria viridis L.); experiment: as above
Summary of the method: as §1

corn (Zea mays L.) [7] = experiment: as above
Summary of the method: as §1

[8] = test system: velvetleaf (Abutilon theophrasti MEDIC.); experiment: as above
Summary of the method: as §1

rice (Oryza sativa L.) [9] = experiment: as above
Summary of the method: as §1

[10] = test system: soybean (Glycine max Merr.); experiment: as above
Summary of the method: as §1

[11] = test system: redroot pigweed (Amaranthus retroflexus L.); experiment: Test Example 1: foliar treatment, growth inhibition rate on 14th day
Summary of the method: (§2)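 Using a small sprayer, formulated compound in water (0.1 vol % surfactant, 1,000 L/ha) was applied to seedlings grown from seed in upland soil. Fourteen days on, growth state was observed and expressed as percent inhibition from 0 to 100.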

[12] = test system: crabgrass (Digitaria sanquinalis L.); experiment: as above
Summary of the method: as §2

[13] = test system: barnyardgrass (Echinochloa crus-qalli L.); experiment: as above
Summary of the method: as §2

[14] = test system: wheat (Triticum aestivum L.); experiment: as above
Summary of the method: as §2

[15] = test system: green foxtail (Setaria viridis L.); experiment: as above
Summary of the method: as §2

corn (Zea mays L.) [16] = experiment: as above
Summary of the method: as §2

rice (Oryza sativa L.) [17] = experiment: as above
Summary of the method: as §2

[18] = test system: soybean (Glycine max Merr.); experiment: as above
Summary of the method: as §2

[19] = test system: wild oat (Avena fatua L.); experiment: as above
Summary of the method: as §2

[20] = test system: italian ryegrass (Lolium multiflorum Lam.); experiment: as above
Summary of the method: as §2

Structure (SMILES)	Growth inhibition rate (%) Redroot pigweed [1] [%]	Growth inhibition rate (%) Crabgrass [2] [%]	Growth inhibition rate (%) Barnyardgrass [3] [%]	Growth inhibition rate (%) Wheat [4] [%]	Growth inhibition rate (%) Prickly sida [5] [%]	Growth inhibition rate (%) Green foxtail [6] [%]	Growth inhibition rate (%) Corn (corn (Zea mays L.) [7]) [%]	Growth inhibition rate (%) Velvetleaf [8] [%]	Growth inhibition rate (%) Rice (rice (Oryza sativa L.) [9]) [%]	Growth inhibition rate (%) Soybean [10] [%]	Growth inhibition rate (%) Redroot pigweed [11] [%]	Growth inhibition rate (%) Crabgrass [12] [%]	Growth inhibition rate (%) Barnyardgrass [13] [%]	Growth inhibition rate (%) Wheat [14] [%]	Growth inhibition rate (%) Green foxtail [15] [%]	Growth inhibition rate (%) Corn (corn (Zea mays L.) [16]) [%]	Growth inhibition rate (%) Rice (rice (Oryza sativa L.) [17]) [%]	Growth inhibition rate (%) Soybean [18] [%]	Growth inhibition rate (%) Wild oat [19] [%]	Growth inhibition rate (%) Italian ryegrass [20] [%]
CC(=O)Oc1cnn(C)c(=O)c1-c1cc(Oc2ncc(C(F)(F)F)cc2Cl)ccc1C [1-171]	0	100	100	0	0	100	0	0	0	0	0	100	100	83	100	100	85	0	100	100
CCc1ccc(Oc2ncc(C(F)(F)F)cc2Cl)cc1-c1c(O)cnn(CC)c1=O [1-173]	0	100	100	0	0	100	50	0	60	0	0	100	100	35	100	99	60	0	100	95
CCc1ccc(Oc2ncc(C(F)(F)F)cc2Cl)cc1-c1c(OC(C)=O)cnn(CC)c1=O [1-174]	0	100	100	0	0	100	0	0	0	0	0	100	100	75	100	100	20	0	100	93
Cc1ccc(Oc2ccc(C(F)(F)F)cn2)cc1-c1c(O)c(C)nn(C)c1=O [Compound 2-3]	0	80	50	0	0	98	0	0	20	0	0	15	85	30	85	10	10	10	35	20
Cc1ccc(Oc2ncc(C(F)(F)F)cc2F)cc1-c1c(O)c(C)nn(C)c1=O [Compound 2-5]	0	100	100	30	0	100	65	0	80	0	20	99	100	40	100	75	85	0	95	95
Cc1ccc(Oc2nc3ccc(Cl)cc3o2)cc1-c1c(O)c(C)nn(C)c1=O [Compound 2-8]	0	95	100	0	0	100	0	0	20	0	0	100	100	25	99	10	15	0	65	83
Cc1ccc(Oc2nc3ccc(Cl)cc3s2)cc1-c1c(O)c(C)nn(C)c1=O [Compound 2-10]	0	50	95	0	0	85	30	0	40	0	0	40	99	10	99	0	0	30	10	10
CC(=O)Oc1c(C)nn(C)c(=O)c1-c1cc(Oc2ncc(Cl)cc2F)ccc1C [Compound 2-59]	0	70	75	0	0	40	0	0	0	0	0	83	99	40	83	90	90	0	95	90
CC(=O)Oc1c(C)nn(C)c(=O)c1-c1cc(Oc2ccc(C(F)(F)F)cn2)ccc1C [Compound 2-61]	0	50	65	0	0	98	0	0	0	0	0	78	99	95	95	95	90	0	98	93
